Data: patent US6692757B1, “Multi-component, safe biocidal complex” (Board of Supervisors of Louisiana State University and …, priority 1999, dated 2004)

Columns and labels:
[1] = system: bacteria endogenous to the city water system (biofilm on glass beads); assay: Biofilm-contaminated glass beads column: organisms released in effluent; format: cell-based; design: key: −: No significant reduction in number of organisms.; +/−: A small or transient reduction in number of organisms.; +: A significant reduction in number of organisms.; +++: A reduction to below 10 organisms per ml effluent; details: hydrogen peroxide 3% v/v, NaHSO4 0.06% w/v, thymol >0.1% w/v, iron chip, treated four days, 12 h static
Experimental: The beads were first contaminated with bacteria endogenous to the city water system for five days.
0.06% w/v; and thymol, >0.1% w/v. Additionally, an iron chip was added to the Biocidal Complex.
Glass beads with an established biofilm were treated, and samples collected and analyzed, as described above.

[2] = system: Escherichia coli on chicken skin; assay: MIC on inoculated chicken skin, E. coli; format: cell-based, Escherichia coli B; details: single agent; chicken skin immersed 10 min at 20° C.; concentration reducing final count below 17.5 cfu/cm^2
Experimental: To test the effectiveness of Biocidal Complex on other surfaces, a 5.7 cm^2 piece of chicken leg skin was placed in a holder made from a bottomless 50 ml centrifuge tube with a cap to support the skin test strip. Each skin sample was initially immersed in water. […] The bacteria were counted as described below. This value served as the control. The skin was then exposed to germicidal ultraviolet light for 5 min to sanitize the skin prior to inoculation. The sanitized skin was inoculated with 1 ml of a cell suspension containing 10^8 cfu/ml of either Salmonella typhimurium or Escherichia coli B and incubated for 30 min at 37° C. and 32° C., respectively. The inoculated skin samples were immersed in Biocidal Complex or in other combinations of ingredients at 20° C. for 10 min. […] The cotton swabs from both the control and treated skin were vortex-mixed for 1 min in a 0.1% peptone solution (pH 7.2). Then 0.5 ml of peptone solution was plated on MacConkey agar (Difco Laboratory, Detroit, Michigan). The plates were incubated for 24 hr at either 37° C. or 32° C. before counting the colonies. Microbial counts were expressed as cfu/cm^2, based on a total skin sample area of 5.7 cm^2. An initial level of contamination before treatment with Biocidal Complex (or water) was assessed for each sample. […] Initial contamination level of the inoculated skin after 30 min incubation time and immediately prior to treatment was 140,000 cfu/cm^2.

[3] = system: Salmonella typhimurium on chicken skin; assay: MIC on inoculated chicken skin, S. typhimurium; format: cell-based; details: single agent; chicken skin immersed 10 min at 20° C.; concentration reducing final count below 17.5 cfu/cm^2
Experimental: To test the effectiveness of Biocidal Complex on other surfaces, a 5.7 cm^2 piece of chicken leg skin was placed in a holder made from a bottomless 50 ml centrifuge tube with a cap to support the skin test strip. Each skin sample was initially immersed in water. […] The bacteria were counted as described below. This value served as the control. The skin was then exposed to germicidal ultraviolet light for 5 min to sanitize the skin prior to inoculation. The sanitized skin was inoculated with 1 ml of a cell suspension containing 10^8 cfu/ml of either Salmonella typhimurium or Escherichia coli B and incubated for 30 min at 37° C. and 32° C., respectively. The inoculated skin samples were immersed in Biocidal Complex or in other combinations of ingredients at 20° C. for 10 min. […] The cotton swabs from both the control and treated skin were vortex-mixed for 1 min in a 0.1% peptone solution (pH 7.2). Then 0.5 ml of peptone solution was plated on MacConkey agar (Difco Laboratory, Detroit, Michigan). The plates were incubated for 24 hr at either 37° C. or 32° C. before counting the colonies. Microbial counts were expressed as cfu/cm^2, based on a total skin sample area of 5.7 cm^2. An initial level of contamination before treatment with Biocidal Complex (or water) was assessed for each sample. […] Contamination level of the inoculated skin after 30 min incubation time and immediately before treatment was 3,500,000 cfu/cm^2. The water-washed control skin ha 1,750 cfu/cm^2.

[4] = system: Escherichia coli in broth culture; assay: MIC in broth culture, E. coli; format: cell-based, Escherichia coli B; details: single agent; nutrient broth, 24 hours at 32° C.; no detectable growth
Experimental: (§1) Nutrient broth was mixed with the complete Biocidal Complex or with combinations of ingredients, and then serially diluted two-fold in stages. Various combinations of biocidal ingredients and broth were inoculated with 0.1 ml of either Salmonella typhimurium or Escherichia coli B to give a microbial count of about 10^7 cfu/ml. Inoculated broth was then incubated for 24 hours at 37° C. for S. typhimurium, or at 32° C. for E. coli.

[5] = system: Salmonella typhimurium in broth culture; assay: MIC in broth culture, S. typhimurium; format: cell-based; details: single agent; nutrient broth, 24 hours at 37° C.; no detectable growth
Experimental: as §1

MIC (%) [2] | MIC (%) [3] | MIC (%) [4] | MIC (%) [5] | SMILES | Effect: qualitative changes in number of organisms released from established biofilms [1]
1.0% | 1.0% | 0.013% | 0.025% | OCl [Sodium Hypochlorite, sodium hypochlorite, reference compound] | 
>0.1% | >0.1% | 0.02% | 0.04% | Cc1ccc(C(C)C)c(O)c1 [Thymol, thymol] | +/−

SMILES | MIC (%) [2] | MIC (%) [3] | MIC (%) [4] | MIC (%) [5] | Effect: qualitative changes in number of organisms released from established biofilms [1]
OO [H2O2, hydrogen peroxide] | 4.0% | 7.0% | 0.006% | 0.012% | −
